The subject of assay [1] is L. (V.) braziliensis promastigotes. The experiment in a line: Antileishmanial activity on promastigotes (MTT, 72 h). It is filed as cell-based, Leishmania (Viannia) braziliensis. As for the experimental part:
Leishmania (Viannia) braziliensis (MHOM/BR/1975/M2903) was utilized in this study. The promastigote forms of these parasites were maintained in vitro in Schneider’s insect medium pH 7.2, supplemented with 20% fetal bovine serum (FBS) and 1% antibiotic solution (100 U/mL penicillin and 100 μg/mL streptomycin) at a temperature of 26 ± 1 °C in a Biochemical Oxygen Demand (BOD) incubator (Eletrolab EL202, São Paulo, Brazil), with regular aeration and weekly subculturing.
(§1) Assessment of antileishmanial activity against promastigote and amastigote axenic forms of parasites followed the method described by Rodrigues et al. and involved the following steps: L. (V.) braziliensis parasites were cultured in 96-well plates at a concentration of 1 × 10^6 parasites per well. Each well contained 100 μL of supplemented Schneider medium. Serial concentrations of the test substances, ranging from 50 to 1.56 μmol/L, were prepared. Reference drugs, meglumine antimoniate (20 to 40,000 μmol/L) and amphotericin B (0.031 to 2 μmol/L) were also prepared. These concentrations were used to assess the effects of the test substances in comparison to reference drugs. The plates were incubated in a BOD incubator at 26 °C for 72 h. After the 72 h incubation period, 10 μL of MTT (5 mg/mL) was added to each well. The plates were then incubated for an additional 4 h. At the end of the 4 h incubation, formazan crystals formed by the reduction of the MTT salt were solubilized by adding 50 μL of a 10% (w/v) sodium dodecyl sulfate (SDS) solution in distilled water. Absorbance was measured using a microplate reader at a wavelength of 540 nm (Biosystems ELx800 model, Curitiba, PR, Brazil). This measurement quantified the metabolic activity of the parasites, which is indicative of their viability and proliferation. Schneider medium containing 0.2% DMSO was used as a negative control in the tests.
The different mean concentrations for promastigotes (IC50) and macrophages (CC50) were calculated using nonlinear regression. For comparisons between groups, ANOVA analysis of variance was performed followed by Tukey’s test in a statistical program, taking the p-value < 0.05 as the maximum level of statistical significance.

For assay [2], the system named is L. (V.) braziliensis axenic amastigotes. The assay is described as follows: Antileishmanial activity on axenic amastigotes (MTT, 72 h). It is filed as cell-based, Leishmania (Viannia) braziliensis. As to the method: In vitro amastigogenesis was performed by transformation from promastigotes at the stationary phase of growth to obtention axenic amastigotes. This process involved altering the culture conditions to Schneider’s medium with a pH of 5.5, supplementing them with 5% FBS, and incubating them at a temperature of 32 °C [17].
as §1

In assay [3] the test system is TNF-α. The assay is described as follows: Cytokine production in supernatant of infected macrophages (ELISA), TNF-α. The format is cell-based, murine. Conditions: supernatant of RAW 264.7 macrophages infected with L. (V.) braziliensis. An excerpt:
To assess the production of cytokines TNF-α and IL-12 (associated with Th1 response), as well as IL-10 and IL-6 (associated with Th2 response), in the supernatants of the macrophage infection assay, the sandwich enzyme-linked immunosorbent assay (ELISA) method was employed, following the manufacturer’s instructions (eBioscience^TM, San Diego, CA, USA). Initially, capture antibodies specific to TNF-α, IL-6, IL-10, and IL-12 were sensitized in ELISA plates (NUNC-ImmunoTM, Sigma-Aldrich, St. Louis, MO, USA). The plates were incubated at 4 °C for 18 h. After the incubation period, all wells were washed with a solution containing 0.05% PBS and Tween 20 (Sigma-Aldrich, St. Louis, MO, USA). A blocking solution containing 10% FBS in PBS was added to the wells and incubated for 1 h. Subsequently, the wells were washed again. The supernatant obtained from the macrophage infection assay was added to the respective wells. Known concentrations of recombinant cytokines (TNF-α, IL-10, IL-6, and IL-12) were also added to the plate in parallel, covering a range from high to low concentrations. The plates were maintained at 4 °C for another 18 h. Following this incubation, additional washes were performed. The detector complex, consisting of biotinylated detection antibodies, was added to the wells. The plates were incubated for an additional hour. After another round of washing, the enzymatic complex avidin-peroxidase was added to each well. The plates were incubated for 30 min at room temperature. The reaction was initiated by adding a substrate solution containing tetramethylbenzidine and hydrogen peroxide. This reaction was allowed to proceed for 15 min. To stop the reaction, 1N sulfuric acid was added to each well. The absorbance was measured in a plate reader at a wavelength of 450 nm. The concentration of cytokines (TNF-α, IL-10, IL-6, and IL-12) in the supernatants was determined by interpolation from the standard curve.

Assay [4] relates to reactive oxygen species (ROS). The assay is described as follows: ROS production (H2DCFDA) in infected RAW 264.7 macrophages. It is filed as cell-based, murine. Conditions: RAW 264.7 macrophages infected with L. (V.) braziliensis. As to the method:
To quantify the levels of ROS generated by L. (V.) braziliensis-infected RAW 264.7 macrophages, the following procedure was employed: RAW 264.7 macrophages (1 × 10^5 cells per well) were added to a 96-well plate, with each well containing 100 μL of supplemented DMEM medium. These cells were allowed to incubate for 3 h at 37 °C with 5% CO2 to promote cell adhesion. Subsequently, the macrophages were infected with L. (V.) braziliensis at a ratio of 10:1 (promastigotes to macrophages) and incubated for 4 h. After the infection period, the cells were plated and incubated with various concentrations of test substances, ranging from 3.12 to 25 μmol/L. This incubation was carried out at 37 °C with 5% CO2 for duration of 72 h. Following the incubation period, 10 µL of H2DCFDA dye was added to each well, resulting in a final concentration of 20 µmol/L. The cells were then incubated at 37 °C in the dark for 30 min. The fluorescent intensity was measured using a fluorescence plate reader (FLx800) at an excitation wavelength of 485 nm and an emission wavelength of 528 nm. The fold change in ROS levels was calculated by comparing the results to a normal control.

Where two headings read alike, the source gives them in different places.

With `O=C(/N=C(/NCc1ccccc1)Nc1ccc([N+](=O)[O-])cc1)c1ccccc1` [LQOF-G1, (Z)-N-benzoyl-N-benzyl-N-(4-nitrophenyl)guanidine], the values for the IC50 in assay [1] and in assay [1] (Leishmania braziliensis) were 4.6 ± 0.5 µM and 4.62 µM, respectively. In addition, the results for the EC50 in assay [2] and in assay [2] (Leishmania braziliensis) were 4.3 ± 0.2 µM and 4.27 µM, respectively. In addition, the TNF-α level result in assay [3] is “increased”. Also, the ROS level result in assay [4] was “increased”.

`O=C(/N=C(/NCc1ccccc1)Nc1ccc(Br)cc1)c1ccccc1` [LQOF-G2, (Z)-N-benzoyl-N-benzyl-N-(4-bromophenyl)guanidine] displayed an IC50 in assay [1] (Leishmania braziliensis) of 5.4 ± 0.8 µM. Also, it took 5 ± 0.8 µM to reach a half-maximal effect in assay [2] (Leishmania braziliensis) (EC50). For the same compound, in assay [3], the TNF-α level result is listed as “increased”. In assay [4], the ROS level result is given as “increased”.

Regarding `CC(C)(C)c1ccc(N/C(=N\C(=O)c2ccccc2)NCc2ccccc2)cc1` [LQOF-G6, (Z)-N-benzoyl-N-benzyl-N-(4-tert-butylphenyl)guanidine], in assay [1] (Leishmania braziliensis), 5.9 ± 0.9 µM corresponded to half-maximal inhibition (IC50). The same compound displayed an EC50 in assay [2] (Leishmania braziliensis) of 4.3 ± 0.7 µM. In assay [3], the TNF-α level result was “increased”. For the same compound, the ROS level result in assay [4] was “increased”.

Take `O=C(/N=C(/NCc1ccccc1)Nc1ccc(I)cc1)c1ccccc1` [LQOF-G7, (Z)-N-benzoyl-N-benzyl-N-(4-iodophenyl)guanidine]: inhibition in assay [1] (Leishmania braziliensis) was half-maximal at 7.2 ± 0.6 µM (IC50). In addition, a half-maximal effect in assay [2] (Leishmania braziliensis) (EC50) was put at 6.1 µM.

In turn, `O=C(/N=C(/NCc1ccc(Cl)cc1Cl)Nc1ccc(Br)cc1)c1ccccc1` [LQOF-G32, (Z)-N-benzoyl-N-(2,4-di-chlorobenzyl)-N-(4-bromophenyl)guanidine] registered an IC50 in assay [1] (Leishmania braziliensis) of 17.2 ± 1 µM.

Values taken from publication PMC10813298, “Evidence of Guanidines Potential against Leishmania (Viannia) braziliensis: Exploring In Vitro Effectiveness, Toxicities and of Innate Immunity Response Effects” (Biomolecules, 2023).
